# Results taken from patent US8551496B2, “Boswellia low polar gum resin extract and its synergistic compositions” (priority 2010, dated 2013).
# pIC50: −log10 of the molar value.
# Experiments:
# 5-lipoxygenase (5-LOX) = conditions: read-out: IC50 for the inhibition of 5-LOX; background, prior art; cited from earlier work
# [1] = test system: Freund's Complete Adjuvant induced paw edema; experiment: Freund's Complete Adjuvant induced arthritis model, inhibition of paw edema; type: in vivo; conditions: 10 mg/kg body weight daily (positive control); FCA-induced Sprague Dawley rats; vs CMC control
Compound,pIC50 (5-lipoxygenase (5-LOX)),Reduction in Paw edema [1] [%]
3-O-Acetyl-11-keto-β-Boswellic acid [AKBA],5.82,
C[C@]12C=CC(=O)C=C1CC[C@@H]1[C@@H]2[C@@H](O)C[C@@]2(C)[C@H]1CC[C@]2(O)C(=O)CO [Prednisolone],,46
